The values below are quoted from earlier work in patent publication US20050214675A1, “Positive-type photosensitive composition” (FUJI PHOTO FILM CO., LTD., priority 2004, published 2005).

Like-named read-outs stand apart in the source and are kept apart here.

The conditions of the data set: for Hammett value: cation of the sulfonium salt used in the plate, third embodiment Tables 1 to 4; for σ (sum of Hammett values of substituents on the aryl skeletons of the cation): o-position treated as p-position.
[1] abbreviates: compound list of first embodiment.
Where [2] appears, read: compound list of second embodiment.

For `O=C(O)c1c2ccccc2cc2ccccc12` [(28)], the Hammett value is on record as 0.

`O=S(=O)(O)c1ccc(O)cc1` [(68)]: the Hammett value is 0.69.

Consider `O=Cc1ccccc1S(=O)(=O)O` [(72)], for which the Hammett value is 0.69.

For `COC(=O)c1cc(C(=O)OC)cc(S(=O)(=O)O)c1` [(75)], the Hammett value was 0.69.

For the molecule `O=C(O)c1cc(C(=O)O)cc(S(=O)(=O)O)c1` [(76)], the Hammett value is 0.69.

`COc1cc(O)c(C(=O)c2ccccc2)cc1S(=O)(=O)O` [(77)]: the Hammett value was 0.69.

Regarding `Cc1ccc([S+](c2ccc(Cl)cc2)c2ccc(Cl)cc2)cc1` [(84)], the “σ (sum of Hammett values of substituents on the aryl skeletons of the cation)” value is 0.29 under setting [1] and 0.29 under setting [2].

For `CC(C)(C)c1ccc([S+](c2ccc(Cl)cc2)c2ccc(Cl)cc2)cc1` [(85)], the “σ (sum of Hammett values of substituents on the aryl skeletons of the cation)” value reads like this: under setting [1], 0.26; under setting [2], 0.26.

In the case of `CC(C)(C)c1ccc([S+](c2ccc(C(C)(C)C)cc2)c2ccc(C(C)(C)C)cc2)cc1` [(86)], the “σ (sum of Hammett values of substituents on the aryl skeletons of the cation)” value by setting is: under setting [1], −0.59; under setting [2], −0.59.

In the case of `Fc1ccc([S+](c2ccc(F)cc2)c2ccc(F)cc2)cc1` [(87)], the “σ (sum of Hammett values of substituents on the aryl skeletons of the cation)” value by setting is: under setting [1], 0.186; under setting [2], 0.186.

For `COc1ccc([S+](c2ccc(OC)cc2)c2ccc(OC)cc2)cc1` [(88)], the “σ (sum of Hammett values of substituents on the aryl skeletons of the cation)” value is reported as −0.804 under setting [1] and −0.804 under setting [2].

On to `Cc1ccc([S+](c2ccc(C)cc2)c2cc(C)c(O)c(C)c2)cc1` [(89)], for which the “σ (sum of Hammett values of substituents on the aryl skeletons of the cation)” value is given as −0.848 under setting [1] and −0.848 under setting [2].
